According to ChEMBL document CHEMBL1201862, “PubChem BioAssay data set” (2004):
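48-hour exposure; five concentrations; linearly interpolated endpoints. The concentration for 50% growth inhibition is given as GI50.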 The source made the active and inactive calls. Cut-off read from the data, not from the text of the source: active = GI50 up to about 1.1 µM and inactive = higher.

What was measured:
Assay in all cases: NCI anticancer screen, dose series, 48 h
[1] = test system: ACHN
[2] = test system: BT-549
[3] = test system: CCRF-CEM
[4] = test system: DMS-114
[5] = test system: EKVX
[6] = test system: HT-29
[7] = test system: Hs-578T
[8] = test system: IGROV-1
[9] = test system: LOX IMVI
[10] = test system: MCF7
[11] = test system: MDA-MB-231
[12] = test system: MDA-MB-435
[13] = test system: Malme-3M
[14] = test system: NCI-H226
[15] = test system: OVCAR-5
[16] = test system: OVCAR-8
[17] = test system: SF-295
[18] = test system: SK-OV-3
[19] = test system: SR
[20] = test system: TK-10

In the case of CN(C)[C@H]1CC[C@H]2[C@@H]3CCC4C[C@@H](NC(=O)NC(Cc5ccccc5)c5nccs5)CC[C@]4(C)[C@H]3CC[C@]12C (stereo not given in full), the GI50 [1] is reported as 1.76 µM (inactive), the GI50 [2] is reported as 1.79 µM (inactive) and the GI50 [3] is reported as 0.29 µM (active). The GI50 [4] was 1.79 µM (inactive), the GI50 [5] was 1.96 µM (inactive) and the GI50 [6] was 0.33 µM (active). The GI50 [7] was 2.19 µM (inactive), the GI50 [8] was 1.87 µM (inactive) and the GI50 [9] was 1.66 µM (inactive). For the same molecule, the GI50 [10] was 0.703 µM (active), the GI50 [11] was 0.377 µM (active) and the GI50 [12] was 0.51 µM (active). For the same molecule, the GI50 [13] was 1.85 µM (inactive), the GI50 [14] was 2.09 µM (inactive) and the GI50 [15] was 1.76 µM (inactive). The GI50 [16] was 0.667 µM (active), the GI50 [17] was 0.757 µM (active) and the GI50 [18] was 1.67 µM (inactive). The GI50 [19] was 1.51 µM (inactive) and the GI50 [20] was 2.04 µM (inactive).

Nc1nc(F)nc2c1ncn2C1OC(COP(=O)(O)O)C(O)C1O (stereo not given) was tested, and the GI50 [1] was 32.1 µM (inactive), the GI50 [2] was 56.2 µM (inactive) and the GI50 [3] was 1.59 µM (inactive). For the same molecule, the GI50 [4] was 10.7 µM (inactive), the GI50 [5] was 45.9 µM (inactive) and the GI50 [6] was 310 µM (inactive). For the same molecule, the GI50 [7] was 81.5 µM (inactive), the GI50 [8] was 286 µM (inactive) and the GI50 [9] was 53.8 µM (inactive). For the same molecule, the GI50 [10] was 78.3 µM (inactive), the GI50 [11] was 80.2 µM (inactive) and the GI50 [12] was 11.9 µM (inactive). The GI50 [13] was 23.3 µM (inactive), the GI50 [14] was 98.2 µM (inactive) and the GI50 [15] was 41.9 µM (inactive). For the same molecule, the GI50 [16] was 2.91 µM (inactive), the GI50 [17] was 309 µM (inactive) and the GI50 [18] was 26.9 µM (inactive). For the same molecule, the GI50 [19] was 21.8 µM (inactive) and the GI50 [20] was 128 µM (inactive).

In the case of O=C(c1ccc(Cl)cc1)c1cnc(Nc2ccccc2Cl)s1, the GI50 [1] is reported as 18.9 µM (inactive), the GI50 [2] is reported as 20.7 µM (inactive) and the GI50 [3] is reported as > 100 µM (inactive). For the same molecule, the GI50 [4] was 24.7 µM (inactive), the GI50 [5] was 22.9 µM (inactive) and the GI50 [6] was 27.1 µM (inactive). The GI50 [7] was 32.4 µM (inactive), the GI50 [8] was 23.2 µM (inactive) and the GI50 [9] was 36 µM (inactive). The GI50 [10] was 31.5 µM (inactive), the GI50 [11] was 41.4 µM (inactive) and the GI50 [12] was 32.6 µM (inactive). The GI50 [13] was 19 µM (inactive), the GI50 [14] was 25.8 µM (inactive) and the GI50 [15] was 29.8 µM (inactive). For the same molecule, the GI50 [16] was 29.2 µM (inactive), the GI50 [17] was 21.5 µM (inactive) and the GI50 [18] was 23 µM (inactive). The GI50 [19] was > 100 µM (inactive) and the GI50 [20] was 18.5 µM (inactive).

For COc1ccc(CC2NCCc3cc(OC)c(OC)cc32)cc1Br (stereo not given), the GI50 [1] was 33 µM (inactive), the GI50 [2] was 87.5 µM (inactive) and the GI50 [3] was 29.2 µM (inactive). For the same molecule, the GI50 [4] was 17.6 µM (inactive), the GI50 [5] was 35.2 µM (inactive) and the GI50 [6] was 19.1 µM (inactive). The GI50 [7] was 19.2 µM (inactive), the GI50 [8] was 35 µM (inactive) and the GI50 [9] was 19.1 µM (inactive). For the same molecule, the GI50 [10] was > 100 µM (inactive), the GI50 [11] was 22 µM (inactive) and the GI50 [12] was 25.1 µM (inactive). The GI50 [13] was 17.3 µM (inactive), the GI50 [14] was 18.6 µM (inactive) and the GI50 [15] was 19.5 µM (inactive). For the same molecule, the GI50 [16] was 50.2 µM (inactive), the GI50 [17] was 21 µM (inactive) and the GI50 [18] was 96.4 µM (inactive). The GI50 [19] was 23.9 µM (inactive) and the GI50 [20] was 25.6 µM (inactive).
